Like-named read-outs stand apart in the source and are kept apart here.
Columns and labels:
[1] = PK evaluation period, Cohort 1: single dose of Formulation A vs Formulation B under fasting conditions (crossover); assay type: in vivo, patients with advanced solid tumors
Procedure: This clinical, pharmacological, multicenter study was conducted in Japan and consisted of two cohorts (Cohorts 1 and 2) and two periods. The patients were first assigned to the pharmacokinetic evaluation period to investigate PK parameters of each formulation (Cohort 1) or the effect of food (Cohort 2), and then to the consecutive administration period (Supplementary Fig. 1).
In both cohorts, a randomized cross-over design was used.
For fasting conditions, patients were required to fast at least 10 h before dosing and at least 4 h after dosing and abstain from drinking water 1 h before and after administration, excluding the water consumed at the time of dosing. For fed conditions, patients were required to fast for at least 10 h before dosing and at least 4 h after dosing (except for the scheduled study meal) and abstain from drinking for 1 h before and after administration, except for drinking water. The study drug was administered within 30 min of completing the meal. The study meal was a high-fat (approximately 50% of the total caloric content of the meal) and high-calorie (572–715 kcal) meal considering the weight ratio of Japanese to American individuals. The meal’s nutritional value was adjusted based on the body weight of Japanese patients according to the US FDA standard guidance. It was recommended that study drug dosing be done with 100–200 (usually 150) mL of water.
Patients underwent hematologic, coagulation, biochemical laboratory examinations, urinalysis, electrocardiogram, ophthalmologic examination, and vital sign and body weight assessments. Blood collection occurred before pimitespib administration and at 0.5, 1, 2, 4, 6, 8, 10, 24, and 48 h after administration at the first and second doses.
For Cohort 1 analyses, the values of the natural log-transformed PK parameters (Cmax, AUClast, AUCinf, terminal elimination rate constant [λz], and mean residence time) were analyzed using analysis of variance (ANOVA), using Phoenix® WinNonlin® Ver. 8.1. […] The time to maximum plasma concentration (tmax) was not transformed and was analyzed using Wilcoxon’s signed-rank test, conducted using EXSUS version 10.0.3. The significance level was set at 5%.

[2] = PK evaluation period, Cohort 2: food effect, single dose of Formulation A under fed vs fasting conditions (crossover); assay type: in vivo, patients with advanced solid tumors
Procedure: For fasting conditions, patients were required to fast at least 10 h before dosing and at least 4 h after dosing and abstain from drinking water 1 h before and after administration, excluding the water consumed at the time of dosing. For fed conditions, patients were required to fast for at least 10 h before dosing and at least 4 h after dosing (except for the scheduled study meal) and abstain from drinking for 1 h before and after administration, except for drinking water. The study drug was administered within 30 min of completing the meal. The study meal was a high-fat (approximately 50% of the total caloric content of the meal) and high-calorie (572–715 kcal) meal considering the weight ratio of Japanese to American individuals. […]
For the analyses related to Cohort 2, the ANOVA model included treatment (fasting and fed conditions), treatment period, and treatment sequence as fixed effects, and patients nested within treatment sequence as a random effect. The GMR and 90% CI of the fed condition to the fasting condition were calculated.

[3] = test system: patients with advanced solid tumors; set-up: method as in PMID 30679388; details: phase I; cited from earlier work
[4] = test system: patients with advanced GIST; set-up: method as in PMID 31536852; details: phase II, advanced GIST failed or intolerant to imatinib, sunitinib, regorafenib; cited from earlier work
[5] = test system: patients with advanced GIST; set-up: method as in doi:10.1200/JCO.2021.39.15_suppl.11524; details: phase III, cited from earlier work

inter-subject CV% for AUCinf [1]: 54.4%
inter-subject CV% for AUClast [1]: 52.6%
inter-subject CV% for Cmax [1]: 63.8%
intra-subject CV% for AUCinf [1]: 24.9%
intra-subject CV% for AUClast [1]: 24.4%
intra-subject CV% for Cmax [1]: 28.5%
AUC under fed conditions, fold higher than under fasting conditions [2]: ~1.6 fold
Cmax under fed conditions, fold higher than under fasting conditions [2]: approximately 1.9 fold
Structure (SMILES): CCc1cc(C(N)=O)ccc1-n1nc(C(C)C)c2c(-n3cnc(-c4cnn(C)c4)c3)ccnc21 [pimitespib, Pimitespib]
patients with GIST achieving a partial response [3]: one
patients with non-small cell lung cancer achieving a partial response [3]: two
median PFS [4]: 4.4 months
median PFS ([5]; advanced GIST refractory or intolerant to imatinib, sunitinib, regorafenib): 2.8 months
hazard ratio (HR) for PFS ([5]; pimitespib vs placebo): 0.51

Reference: PMC9395490, “An open-label, crossover study to compare different formulations and evaluate effect of food on pharmacokinetics of pimitespib in patients with advanced solid tumors” (Investigational New Drugs, 2022)
